Results reported in patent US20110294144A1, “SCREENING METHOD” (priority 2008, published 2011).

Assays:
PRKX [1] = target: T1, PRKX (Homo sapiens, UniProt P51817); experiment: Cell-free tau S214 phosphorylation by recombinant PRKX protein, Western blot; type: biochemical; set-up: purchased Invitrogen; settings: 30° C., 60 min
T1 sequence (P51817 1-358): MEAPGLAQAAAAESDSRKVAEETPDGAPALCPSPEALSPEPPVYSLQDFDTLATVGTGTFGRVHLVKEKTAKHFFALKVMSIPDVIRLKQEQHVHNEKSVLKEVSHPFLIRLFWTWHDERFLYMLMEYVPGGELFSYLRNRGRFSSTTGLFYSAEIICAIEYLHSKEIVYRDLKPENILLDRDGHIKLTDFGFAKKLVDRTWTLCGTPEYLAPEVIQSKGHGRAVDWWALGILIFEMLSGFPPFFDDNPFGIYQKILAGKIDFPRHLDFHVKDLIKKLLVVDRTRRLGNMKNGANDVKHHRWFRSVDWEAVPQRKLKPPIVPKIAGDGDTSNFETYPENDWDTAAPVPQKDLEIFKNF
Method: To a reaction mixture (40 mM Tris-HCl (pH 7.5), 20 mM MgCl2, 0.1 mg/ml BSA, 25 μl) containing recombinant PRKX protein (Invitrogen, 4 μg/ml) and recombinant tau protein (Wako Pure Chemical Industries, Ltd., 40 μg/ml) was added H-89 solution (40 mM Tris-HCl (pH 7.5), 0.1% DMSO, 20 mM MgCl2, 0.1 mg/ml BSA, 5 μl) to a concentration during reaction of 1 or 0.1 μM. As a control, 40 mM Tris-HCl (pH 7.5), 0.1% DMSO, 20 mM MgCl2, 0.1 mg/ml BSA solution (5 μl) were added. 25 μM ATP solution (40 mM Tris-HCl (pH 7.5), 20 mM MgCl2, 0.1 mg/ml BSA) was added by 20 μl to start the reaction and the mixture was left standing at 30° C. for 60 min. An SDS sample buffer was added to quench the reaction, the protein was separated using NuPAGE 4-12% Bis-Tris gel and transferred to a PVDF membrane. Western blot was performed using an anti-S214 phosphorylated tau antibody as a primary antibody and ECL Advance Western Blotting Detection Kit, and S214 phosphorylated tau was quantified by LAS-1000 plus lumino image analyzer. […] By the addition of H-89 at a final concentration of 1 and 0.1 μM, the tau S214 phosphorylation reaction decreased to 5% and 52%, respectively, of that without the addition.

PRKX [2] = target: T1, PRKX; experiment: pS214 tau / total tau ELISA in PRKX-transfected H4-tau cells; type: cell-based; set-up: using change-1F and hPRKX-1R as primers to give mutant PRKX full-length DNA; expressed in transfected cells; host or cells: H4-tau cells (human H4 neuroglial cells stably expressing human tau), transiently transfected with pPRKXkai (pTARGET vector); settings: H-89 10-0.1 μM, 2 hr, pPRKXkai, read-out: IC50 of suppression of the amount of tau S214 phosphorylation (ELISA, phosphorylated tau in total tau)
Method: pPRKXkai and pTARGET vectors were each transferred into H4-tau cells cultured overnight in a DMEM medium containing 10% FBS, using a Fugene6 transfection reagent. One day later, H-89 was added at a concentration of 10-0.1 μM. 2 hr later, the cells were dissolved in a cell lysis buffer, the amount of S214 phosphorylated tau was measured using a human pS214 tau ELISA kit, the amount of the total tau was measured using a human total tau ELISA kit, and the amount of phosphorylated tau in the total tau was examined. As a result, the amount of tau S214 phosphorylation was suppressed at an IC50 value of 0.7 μM.

PRKX [3] = target: T1, PRKX; experiment: In-cell infrared fluorescence imaging (Odyssey) of S214 phosphorylated tau and total tau in PRKX-transfected H4-tau cells; type: cell-based; set-up: using change-1F and hPRKX-1R as primers to give mutant PRKX full-length DNA; expressed in transfected cells; host or cells: H4-tau cells (human H4 neuroglial cells stably expressing human tau), transiently transfected with pPRKXkai (pTARGET vector); settings: H-89 10-0.1 μM, 2 hr; H4-tau cells in 96 well plate, pPRKXkai; read-out: IC50 of suppression of the amount of tau S214 phosphorylation (infrared fluorescence imaging)
Method: H4-tau cells were plated in a DMEM medium containing 10% FBS in a 96 well plate at a concentration of 1×10^4 cells/well and, the next day, pPRKXkai and pTARGET vectors were each transferred thereinto using a Fugene6 transfection reagent. One day later, H-89 was added to the medium at a concentration of 10−0.1 μM. 2 hr later, the cells were fixed with 4% para-formaldehyde (Wako Pure Chemical Industries, Ltd.), washed with phosphate buffer, and blocked with phosphate buffer containing 1.5% BSA (Sigma Aldrich) and 0.1% Triton X-100 (Wako Pure Chemical Industries, Ltd.). Thereafter, as a primary antibody, an anti-S214 phosphorylated tau antibody was used to label phosphorylated tau and an anti-tau monoclonal antibody HT-7 (Pierce Biotechnology) was used to label total tau. After washing, they were reacted with an anti-rabbit Alexa Fluor 680-labeled secondary antibody (Invitrogen) and an anti-mouse IRD800CW-labeled secondary antibody (Wako Pure Chemical Industries, Ltd.), as secondary antibodies. After washing, the amounts of S214 phosphorylated tau and total tau were detected using 2 fluorescence system infrared fluorescence Imager Odyssey (ALOKA CO., LTD.). As a result, the amount of tau S214 phosphorylation was suppressed at an IC50 value of 0.7 μM.

[4] = test system: H4 cells infected with PRKX overexpression lentivirus; experiment: Cell death (DAPI positive cell count) in H4 cells infected with PRKX overexpression lentivirus; type: cell-based, human; settings: PRKX lentivirus MOI=1
Method: H4 cells were plated in a 48 well plate at a concentration of 3.5×10^3 cells/well and, the next day, infected with PRKX or lacZ overexpression lentivirus at MOI=1. Two days later, H-89 was added at 3 or 10 μM. The next day, the cells were fixed, and the nucleus was stained with DAPI. DAPI positive cells were photographed by Discovery-1, and the number of DAPI positive cells was counted from the images by a Metamorph software. […] The cell death was suppressed by 29% or 46% by the addition of 3 μM or 10 μM H-89.

[5] = test system: H4-tau cells infected with PRKX overexpression lentivirus; experiment: Thioflavin S positive cell count (tau aggregation) in H4-tau cells infected with PRKX overexpression lentivirus; type: cell-based, human; settings: 3 μM H-89, added three days after infection; PRKX lentivirus MOI=2.5
Method: H4-tau cells were plated in a 24 well plate at a concentration of 1×10^5 cells/well and, the next day, infected with PRKX or lacZ overexpression lentivirus at MOI=1 or 2.5. Three days later, H-89 was added to a concentration of 3 μM. The next day, the cells fixed with 4% para-formaldehyde were washed with phosphate buffer, and blocked with phosphate buffer containing 1.5% BSA and 0.1% Triton X-100. Thereafter, the cells were stained by using S214 phosphorylated tau, and anti-S214 phosphorylated tau or total tau antibody as a primary antibody and anti-rabbit Alexa Fluor 594-labeled secondary antibody as a secondary antibody. Thereafter, the cells were left standing in 0.005% aqueous thioflavin S (Sigma Ltd.) solution for 5 min, and washed twice with 70% ethanol and once with water. Furthermore, the nucleus was stained with DAPI. The stained cells were photographed by Discovery-1, and the number of DAPI positive cells and the number of thioflavin S positive cells were counted by metamorph software (Molecular Device) based on the images taken by Discovery-1. In the PRKX infected well, the number of cells stained with thioflavin S having a β sheet structure increased 2-fold at MOI=1 and 5.2-fold at MOI=2.5 as compared to lacZ infected well. By containing with a tau specific antibody, almost all thioflavin S positive images were contained with tau and S214 phosphorylated tau. […]

[6] = test system: mouse primary nerve cells infected with PRKX overexpression lentivirus; experiment: Neurite elongation (MAP2 staining) in mouse primary nerve cells infected with PRKX overexpression lentivirus; type: cell-based; settings: DIV14 mouse primary nerve cells, PRKX lentivirus MOI=2, forskolin 10 μM 2 days
Method: DIV14 mouse primary nerve cells were plated in a 48 well plate at a concentration of 3.5×10^3 cells/well and infected with PRKX or D172A overexpression lentivirus at MOI=2. Four days after the infection, forskolin was added at a concentration of 10 μM, and the cells were cultured for 2 days. The cells were fixed, nerve cell was labeled with anti-MAP2 monoclonal antibody as a primary antibody, anti-MAP2 antibody was stained with anti-mouse Alexa Fluor 488-labeled secondary antibody, and they were photographed by Discovery-1. The neurite elongation was measured by a metamorph software based on the images taken by Discovery-1. As a result, the decrease of the neurite elongation found with the PRKX overexpression lentivirus was suppressed by 76% by H-89.

PRKX [7] = target: T1, PRKX; settings: non-patent document 3; cited from earlier work
[8] = test system: mouse primary nerve cells infected with PRKX overexpression lentivirus; experiment: Immunostaining of S214 phosphorylated tau in mouse primary nerve cells infected with PRKX overexpression lentivirus; type: cell-based; settings: DIV12 mouse primary nerve cells, PRKX lentivirus MOI=2
Excerpt: DIV12 mouse primary nerve cells plated in a 48 well plate at a concentration of 3.5×10^3 cells/well were infected with PRKX overexpression lentiviruses at MOI=2. Two days later, the cells were fixed with 4% para-formaldehyde, washed with phosphate buffer, and blocked with a phosphate buffer containing 1.5% BSA and 0.1% Triton X-100. Thereafter, as a primary antibody, an anti-S214 phosphorylated tau antibody was used to label phosphorylated tau, and an anti-MAP2 monoclonal antibody (Chemicon International) was used to label nerve cells. After washing, anti-S214 phosphorylated tau antibody was stained with anti-rabbit alexafluoro594-labeled secondary antibody, and anti-MAP2 antibody was stained with anti-mouse alexafluoro488-labeled secondary antibody (Invitrogen), and they were photographed using Discovery-1. As a result, the amount of tau S214 phosphorylation decreased due to H-89.

PRKX [9] = target: T1, PRKX; experiment: Western blot of S214 phosphorylated tau in H4-tau cells transfected with PRKX expression plasmid; type: cell-based; set-up: using change-1F and hPRKX-1R as primers to give mutant PRKX full-length DNA; expressed in transfected cells; host or cells: H4-tau cells (human H4 neuroglial cells stably expressing human tau), transiently transfected with pPRKXkai (pTARGET vector); settings: 10 μM H-89 added 2 hr before cell recovery
Method: pFB-Neo-CMV-tau plasmid obtained by inserting a DNA fragment containing a wild-type human tau gene bound at the downstream of a CMV promoter into a multicloning site of pFB-neo vector (Stratagene) was transferred into H4 neuroglial cells according to the instructions of ViraPort(R) Retroviral Gene Expression System (Stratagene), and a cell confirmed to show expression of tau was used as a H4-tau cell. […] After transcription to a PVDF membrane, Western blot was performed using, as a primary antibody, an anti-S214 phosphorylated tau antibody (BioSource) for the detection of S214 phosphorylated tau, an Ab-3 antibody (Lab Vision) for the detection of total tau, and […], and according to the instructions of ECL Advance Western Blotting Detection Kit (Amarsham Bioscience), and each protein was detected by LAS-1000 plus lumino image analyzer (Fujifilm). […] The tranfected cell was dissolved in a cell lysis buffer (BioSource), the amount of S214 phosphorylated tau was measured using a human pS214 tau ELISA kit (BioSource), the amount of total tau was measured using a human total tau ELISA kit (BioSource), each according to the instructions, and the amount of phosphorylated tau in the total tau was examined. […]

O=S(=O)(NCCNC/C=C/c1ccc(Br)cc1)c1cccc2cnccc12 [H-89]
tau S214 phosphorylation reaction, % of that without the addition (PRKX [1]; H-89 final concentration 0.1 μM): 52%
tau S214 phosphorylation reaction, % of that without the addition (PRKX [1]; H-89 final concentration 1 μM): 5%
IC50 (PRKX [2]): 700 nM
IC50 (PRKX [3]): 700 nM
suppression of cell death ([4]; 3 μM H-89): 29%
suppression of cell death ([4]; 10 μM H-89): 46%
suppression of the increase of thioflavin S stained cells [5]: 75%
suppression of the decrease of the neurite elongation [6]: 76%
inhibition of PRKX (PRKX [7]): inhibit PRKX
amount of tau S214 phosphorylation [8]: decreased
enhanced S214 phosphorylation of tau (Western blot) (PRKX [9]): enhanced phosphorylation was not found
